Data as given in patent US11596620B2, “Formulations with reduced oxidation” (Genentech, Inc., priority 2013, dated 2023).
“Also recorded” adds a separate entry of the source.

Experiments:
[1] = Photosensitivity screening assay (H2O2 by Amplex Ultra Red after light exposure); format: physicochemical; details: for H2O2 produced in comparison to L-Trp: 1 mM, four hours of light at 250 W/m^2, times more H2O2 than L-Trp
Procedure: As a screening tool, antioxidant candidates were exposed to light for four hours at 250 W/m^2 and the resulting H2O2 formation was quantified by the Amplexassay. Specifically, antioxidants were prepared to 1 mM in 20 mM histidine acetate buffer at pH 5.5. The 1 mM antioxidant solutions were aliquoted into glass vials (2 mL/glass vial) and exposed to four hours of light at 250 W/m^2 in an Atlas SunTest CPS+ Xenon Test Instrument (Chicago, Ill.). Total UV dose was 90 watt-hours/square meter and total visible dose was 0.22 million lux hours over the 4-hour period. Control vials were wrapped in aluminum foil and treated similarly. The amount of hydrogen peroxide generated after exposure to light was measured using the Amplex® Ultra Red Assay (Invitrogen, Carlsbad, Calif.) following the manufacturer's recommended procedure. On addition of horseradish peroxidase (HRP), the dye reacted 1:1 stoichiometrically with H2O2, resulting in the production of fluorescent oxidation product resorufin. In this study, fluorescence readings were obtained using a Spectra Max M2 Micro-plate Reader (Molecular Devices, Sunnyvale, Calif.) with excitation and emission set at 560 nm and 590 nm, respectively. Final H2O2 concentrations were determined using a standard curve ranging from 0 μm to 20 μm.

[2] = Cyclic voltammetry (CV) screening assay, oxidation potential; format: physicochemical
Procedure: The oxidation/reduction characteristics of the compounds were investigated. Several compounds, including L-Trp and derivatives, were evaluated for the protection of Trp oxidation in proteins using cyclic voltammetry (CV) and rank ordered based on their oxidation potentials (Table 2). Specifically, the candidate antioxidants were dissolved in deionized water and then added to a 0.2 M lithium perchlorate electrolyte solution. […] Solutions were scanned from −0.10 V to +1.50 V at a scan rate of either 100 or 500 mV/sec. The analytical cell was purged for four minutes with nitrogen before scanning of each antioxidant solution. The input was a linear scan of the potential of a working electrode, and the output was measurement of the resulting current. […] Redox reactions were characterized by sharp increases or decreases in current (peaks). The potential at which an oxidation reaction occurred was referred to as the anodic peak potential (or oxidation potential), and the potential at which a reduction occurred was referred to as is the cathodic peak (or reduction) potential.

mAb1 [3] = assay: Light stress of mAb1 formulation (eight hours at 250 W/m^2), papain digest RP-HPLC; format: physicochemical, human
Procedure: L-tryptophan (L-Trp), an antioxidant used in protein formulations, has been recently shown to be photosensitive (Igarashi et al., Anal Sci 23(8):943-8 (2007)) and to have the ability to produce H2O2 upon light exposure. […] Control vials were wrapped in aluminum foil and treated similarly. After light exposure, solutions were prepared for analysis by reverse-phase HPLC. […] Following incubation, 900 μL of the solution was combined with 100 μL of 1 M dithiothreitol (DTT) and incubated for another thirty minutes at 37° C. Samples were then run on an Agilent, Inc. 1100/1200 HPLC system (Santa Clara, Calif.) equipped with UV detection at 280 nm in conjunction with a Varian, Inc. Pursuit 3 μm, 2 mm ID×250 mm diphenyl column (Palo Alto, Calif.). Mobile Phase A was 0.1% TFA in water. Mobile Phase B was 0.1% TFA in acetonitrile. The mobile phase gradient increased linearly from 34% B at 0 minutes to 43% B at 50.0 minutes, then to 95% B at 50.1 minutes. The gradient remained at 95% B until 60.1 minutes, and then decreased linearly from 95% B to 34% B between 60.1 and 60.2 minutes. The gradient remained at 34% B until the end of the cycle at 80.2 minutes. The column temperature was 65° C., total flow rate was 0.2 mL/min, and injection volume of each sample was 6 μL. Chromatograms were then integrated for quantification of oxidation.

mAb1 [4] = assay: mAb1 light stress study (16 hours at 250 W/m^2), RP-HPLC; format: physicochemical, human; details: 16 hours of light at 250 W/m^2; for Fab oxidation increase over the control level (mAb1 Ref Mat): excipient 1 mM or none; for Light-induced Fc oxidation, effect in words / Light-induced Fab oxidation, effect in words: excipient 1 mM; for Light-induced Fc oxidation, effect in words: compared to no excipient
Procedure: (§1) The fragments were reduced with DTT, and then separated and identified via Liquid Chromatography-Mass Spectrometry (LC-MS). […] Comparison of area integrated under the oxidized and native peaks was used to quantify HC Fab and Fc oxidation. […] By using the papain digest RP-HPLC method in the present study it was possible to investigate Trp residue oxidation by quantifying HC Fab oxidation, and Met residue oxidation by quantifying HC Fc oxidation.
Antioxidants were added at 1 mM. Glass vials containing these formulations were exposed to 250 W/m^2 light in an Atlas SunTest CPS+ Xenon Test Instrument (Chicago, Ill.). Control vials were wrapped in aluminum foil and treated similarly. After light exposure, solutions were prepared for analysis by reverse-phase HPLC as described above.

mAb1 [5] = assay: mAb1 AAPH stress study, RP-HPLC; format: physicochemical, human; details: for Fab (Trp residue) oxidation: mAb1 with AAPH for 24 hours at 40° C., antioxidants at 1 mM or none
Procedure: as §1
Antioxidants were added at 1 mM. […] After buffer exchange, each solution was prepared for analysis by reverse-phase HPLC as described above.

[6] = 1 mM in 20 mM histidine acetate pH 5.5, four hours of light at 250 W/m^2
[7] = anodic peak potential, glassy carbon working electrode, 0.2M lithium perchlorate
[8] = cyclic voltammetry, 0.2 M lithium perchlorate

SMILES | (H2O2 produced by Compound)/(H2O2 produced by L-Trp) [1, 6] | H2O2 produced compared to L-Trp, in words [1, 6] | Oxidation Potential [2, 7] [V vs Ag/AgCl] | Oxidation potential relative to L-Trp, in words ([2]; cyclic voltammetry) | further results
COc1ccc2[nH]cc(CCNC(C)=O)c2c1 [Melatonin (N-Acetyl-5-Methoxytryptamine), N-Acetyl-5-Methoxytryptamine] | 0.28 | less than a third | 0.730 | – | –
NCCc1c[nH]c2ccccc12 [Tryptamine] | 0.53 | about half as much H2O2 | 1.010 | higher oxidation potential than L-Trp | H2O2 produced compared to L-Trp, in words ([1]; 1 mM in 20 mM histidine acetate pH 5.5, four hours of light at 250 W/m^2, listed as tryptamine): two times less
O=C(O)c1cc(O)ccc1O [5-Hydroxysalicylic Acid] | 0.84 | behaved like L-Trp | – | – | –
O=C(O)Cc1c[nH]c2ccccc12 [Indole-3-Acetic Acid] | 2.40 | twice as much H2O2; also recorded: two times more H2O2 | 0.948 | higher oxidation potential than L-Trp | –
CSCC[C@H](N)C(=O)O [L-Met, L-methionine] | – | – | – | – | Fab oxidation, effect in words (mAb1 [3]; 10, 25, 50, and 100 mM L-Met added to formulation containing 1 mM L-Trp, eight hours of light): appeared to reduce Fab oxidation slightly; Fc oxidation, effect in words (mAb1 [3]; eight hours of light at 250 W/m^2, no excipient, or 10, 25, 50 and 100 mM L-Met added to 1 mM L-Trp): reduced the amount of Fc oxidation
Nc1ccccc1C(=O)O [Anthranilic Acid] | 2.50 | twice as much H2O2 | – | – | –
O=C(O)c1cc2cccc(O)c2[nH]1 [7-Hydroxyindole-2-Carboxylic Acid] | 0.15 | – | – | – | –
Oc1cccc2[nH]ccc12 [4-Hydroxyindole] | 0.00 | – | – | – | –
NC(Cc1c[nH]c2ccc([N+](=O)[O-])cc12)C(=O)O (racemic) [5-nitro-DL-tryptophan] | – | – | 1.055 | higher oxidation potential than L-Trp | –
c1ccc2[nH]ccc2c1 [Indole] | 0.95 | behaved similarly to L-Trp | – | significantly lower oxidation potential than L-Trp | –
Nc1ccccc1C(=O)C[C@H](N)C(=O)O [L-Kynurenine, L-kynurenine] | 0.20 | about one fifth | 1.040 | higher oxidation potential than L-Trp | –
NC(=O)[C@@H](N)Cc1c[nH]c2ccccc12 [L-Trpamide, L-tryptophanamide] | 0.43 | – | 1.015 | higher oxidation potential than L-Trp | Fab oxidation increase over the control level (mAb1 Ref Mat) (mAb1 [4]): 8 fold; Light-induced Fc oxidation, effect in words (mAb1 [4]): more Fc oxidation
COc1ccc2[nH]cc(CC(N)C(=O)O)c2c1 (racemic) [5-Methoxy-DL-Trp, 5-methoxy-DL-tryptophan] | 1.05 | – | 0.890 | – | Oxidation Potential [2, 8]: 0.890 V vs Ag/AgCl
O=C(O)Cc1c[nH]c2ccc(O)cc12 [5-Hydroxyindole-3-Acetic Acid] | 0.11 | – | 0.535 | – | –
Oc1ccc2[nH]ccc2c1 [5-Hydroxyindole] | −0.08 | – | 0.580 | – | Fab (Trp residue) oxidation (mAb1 [5]): about 2%; Light-induced Fab oxidation, effect in words (mAb1 [4]): near control levels
Cc1ncc(CO)c(CO)c1O [Pyridoxine] | 5.16 | – | – | – | H2O2 produced in comparison to L-Trp [1]: 5 times
Nc1ccc(O)cc1C(=O)O [5-Hydroxyanthranilic Acid] | 0.44 | half as much H2O2 | – | – | –
N[C@@H](Cc1c[nH]c2ccc(F)cc12)C(=O)O [5-Fluoro-L-Trp, 5-fluoro-L-tryptophan] | 0.71 | – | 0.965 | higher oxidation potential than L-Trp | –
CC(=O)N[C@@H](Cc1c[nH]c2ccccc12)C(=O)O [N-Acetyl-L-Trp, N-acetyl-L-tryptophan] | 0.31 | – | 0.875 | – | –
N[C@@H](Cc1c[nH]c2ccc(O)cc12)C(=O)O [5-Hydroxy-L-Trp, 5-hydroxy-L-tryptophan] | 0.09 | about one tenth | 0.565 | – | Fab (Trp residue) oxidation (mAb1 [5]): about 2%; Light-induced Fab oxidation, effect in words (mAb1 [4]): near control levels
NCCc1c[nH]c2ccc(O)cc12 [Serotonin (5-Hydroxytryptamine), 5-Hydroxytryptamine] | 0.03 | very little H2O2 | 0.600 | – | Fab (Trp residue) oxidation (mAb1 [5]): about 2%; Light-induced Fab oxidation, effect in words (mAb1 [4]): near control levels
O=C(O)c1ccccc1O [Salicylic Acid] | – | – | 1.080 | higher oxidation potential than L-Trp | (H2O2 produced by Compound)/(H2O2 produced by L-Trp) ([1]; pH 5.5): 0.03; H2O2 produced compared to L-Trp, in words ([1]; pH 5.5): very little H2O2; Oxidation Potential [2, 8]: 1.080 V vs Ag/AgCl; AAPH-induced Fab oxidation, effect in words (mAb1 [5]; excipient 1 mM, AAPH 24 hours at 40° C.): almost no effect; Fab oxidation increase over the control level (mAb1 Ref Mat) (mAb1 [4]): 8 fold; Light-induced Fc oxidation, effect in words (mAb1 [4]): more Fc oxidation
Cc1c(C)c2c(c(C)c1O)CCC(C)(C(=O)O)O2 (stereo not drawn) [Trolox] | 122.75 | – | – | – | H2O2 produced in comparison to L-Trp [1]: 123 times
Nc1ccc2[nH]cc(CC(N)C(=O)O)c2c1 (racemic) [5-Amino-DL-Trp, 5-amino-DL-tryptophan] | 0.29 | – | 0.410 | – | Oxidation Potential [2, 8]: 0.410 V vs Ag/AgCl
Oc1cccc2cc[nH]c12 [7-Hydroxyindole] | −0.03 | – | – | – | Fab (Trp residue) oxidation (mAb1 [5]): about 2%; Light-induced Fab oxidation, effect in words (mAb1 [4]): near control levels
